Tested on: subjects with moderately to severely active RA who have an inadequate response to methotrexate (MTX)
Assay: Study 2 (monotherapy) - Subject VAS mean changes (ACR patient assessment)
Format: in vivo, human
Details: LOCF, 12 weeks results
Description: The scale is 100 mm, the decrease in mm is shown. […] (dotted line), 100 mg q.d. (dashed line) or 200 mg q.d. (dark solid line). The results shown in the figures are calculated using Last-Observation-Carried-Forward (LOCF), which handles missing data by assigning the value recorded at the patient's last visit to all subsequent missed visits.
Randomized, double-blind, placebo-controlled, multicenter, phase IIb dose finding study of Compound 1 (dosed as a [Compound 1:HCl:3H2O]) administered for 24 weeks as monotherapy to subjects with moderately to severely active rheumatoid arthritis who have an inadequate response to methotrexate alone
Double-blind, placebo-controlled, monotherapy study in subjects with moderately to severely active RA who have an inadequate response to methotrexate (MTX) (oral or parenteral).
280 subjects randomized to one of 3 doses of Compound 1 (dosed as a [Compound 1:HCl:3H2O]) or to placebo, given once daily (q.d.).
Twelve weeks of treatment with Compound 1 (dosed as a [Compound 1:HCl:3H2O]) at 50 mg, 100 mg, or 200 mg q.d.; or placebo. At Week 12, all subjects on placebo and the subjects on the 50 mg dose who have not achieved 20% improvement in swollen joint count (SJC66) and tender joint count (TJC68) will be assigned to 100 mg q.d. in a blinded fashion and will continue treatment until Week 24. Subjects in the other groups will maintain their randomized treatment until Week 24.
Firstly, the patient is asked to make a vertical mark on a 100 mm Visual Analog Scale (VAS) corresponding to their general health or global disease activity on a touch screen to measure the VAS value, which is used in the formula below.
The American College of Rheumatology (ACR) composite score, which evaluates clinical improvement relative to an initial assessment, is a commonly accepted efficacy end point for clinical trials in patients with rheumatoid arthritis. The ACR score correspond to a percentage improvement in pre-set parameters, and therefore measures the evolution of the disease in a patient. For example, ACR20 denotes at least 20% improvement in tender and swollen joint counts and in three of the following end points: global assessment by the patient, global assessment by the doctor, C reactive protein (CRP), patient's pain Visual Analogue Scale and Health Assessment Questionnaire Score. The number of swollen joints, ESR and CRP correlate with radiographic progression of joint damage, whereas tender joint counts, as well as global assessments by doctors and patients, and patients' reports of pain, are sensitive to change in clinical outcomes. Physical function, as assessed by the Health Assessment Questionnaire Score, is a potent predictor of the risk of disability in rheumatoid arthritis (Felson and American College of Rheumatology Committee to Reevaluate Improvement Criteria, 2007; Felson et al., 1993).

`O=C(Nc1nc2cccc(-c3ccc(CN4CCS(=O)(=O)CC4)cc3)n2n1)C1CC1` [Compound 1, cyclopropanecarboxylic acid {5-[4-(1,1-dioxo-thiomorpholin-4-ylmethyl)-phenyl]-[1,2,4]triazolo[1,5-a]pyridin-2-yl}-amide] was tested, and the “Subject VAS mean changes (ACR patient assessment)” value (shortened to “Subject VAS mean changes”) (50 mg q.d., week 0) was 0.0%, the “Subject VAS mean changes” value (50 mg q.d., week 1) was −12.3% and the “Subject VAS mean changes” value (50 mg q.d., week 2) was −17.3%. The “Subject VAS mean changes” value (50 mg q.d., week 4) was −19.3%, the “Subject VAS mean changes” value (50 mg q.d., week 8) was −23.6% and the “Subject VAS mean changes” value (50 mg q.d., week 12) was −27.4%. For the same compound, the “Subject VAS mean changes” value (100 mg q.d., week 0) was 0.0%, the “Subject VAS mean changes” value (100 mg q.d., week 1) was −12.2% and the “Subject VAS mean changes” value (100 mg q.d., week 2) was −17.2%. The “Subject VAS mean changes” value (100 mg q.d., week 4) was −21.3%, the “Subject VAS mean changes” value (100 mg q.d., week 8) was −29.2% and the “Subject VAS mean changes” value (100 mg q.d., week 12) was −29.8%. For the same compound, the “Subject VAS mean changes” value (200 mg q.d., week 0) was 0.0%, the “Subject VAS mean changes” value (200 mg q.d., week 1) was −14.8% and the “Subject VAS mean changes” value (200 mg q.d., week 2) was −19.9%. For the same compound, the “Subject VAS mean changes” value (200 mg q.d., week 4) was −25.0%, the “Subject VAS mean changes” value (200 mg q.d., week 8) was −30.3% and the “Subject VAS mean changes” value (200 mg q.d., week 12) was −28.8%.

Reference: patent US20180200257A1, “METHODS FOR THE TREATMENT OF INFLAMMATORY DISORDERS” (Galapagos NV, priority 2015, published 2018)
